Measurements taken from patent publication US12427122B2, “Method of making transdermal amphetamine composition with low levels of carbamate” (Noven Pharmaceuticals, Inc., priority 2021, dated 2025).

Test: Stability of the amphetacarbamate moiety in solution
Assay type: physicochemical
Text: As noted above, the existence or identity of amphetamine carbamate or amphetacarbamate per se were not known. Rather, amphetamine carbamate was identified and characterized by analyzing crystals isolated from drug-containing polymer matrices of transdermal amphetamine compositions, and amphetacarbamate was identified the work done to identify and characterize amphetamine carbamate. In addition to the inventions described herein pertaining to transdermal amphetamine compositions and amphetamine transdermal delivery systems, methods for detecting and quantifying amphetamine carbamate had to be developed. […] Thus, for example, typical HPLC assays could not be used.

With “(S)-1-phenylpropan-2-ammonium-(S)-(1-phenylpropan-2-yl)carbamate [amphetamine carbamate]” the “stability of amphetacarbamate moiety” value was “labile and readily converts to amphetamine”.
